This is an account of results in US5047431A, “1,1,2-triphenylbut-1-ene derivatives” (Klinge Pharma GmbH & Co., priority 1980, dated 1991).

The conditions of assay [1]: background art; cited from earlier work.
Another assay addresses T1, estradiol receptor (Oryctolagus cuniculus, UniProt G1SML6).
T1 construct: The uterus cytosol of female, prepuberal white rabbits; from tissue; host or cells: uterus cytosol of female prepuberal New Zealand white rabbits
T1 sequence (G1SML6 1-598): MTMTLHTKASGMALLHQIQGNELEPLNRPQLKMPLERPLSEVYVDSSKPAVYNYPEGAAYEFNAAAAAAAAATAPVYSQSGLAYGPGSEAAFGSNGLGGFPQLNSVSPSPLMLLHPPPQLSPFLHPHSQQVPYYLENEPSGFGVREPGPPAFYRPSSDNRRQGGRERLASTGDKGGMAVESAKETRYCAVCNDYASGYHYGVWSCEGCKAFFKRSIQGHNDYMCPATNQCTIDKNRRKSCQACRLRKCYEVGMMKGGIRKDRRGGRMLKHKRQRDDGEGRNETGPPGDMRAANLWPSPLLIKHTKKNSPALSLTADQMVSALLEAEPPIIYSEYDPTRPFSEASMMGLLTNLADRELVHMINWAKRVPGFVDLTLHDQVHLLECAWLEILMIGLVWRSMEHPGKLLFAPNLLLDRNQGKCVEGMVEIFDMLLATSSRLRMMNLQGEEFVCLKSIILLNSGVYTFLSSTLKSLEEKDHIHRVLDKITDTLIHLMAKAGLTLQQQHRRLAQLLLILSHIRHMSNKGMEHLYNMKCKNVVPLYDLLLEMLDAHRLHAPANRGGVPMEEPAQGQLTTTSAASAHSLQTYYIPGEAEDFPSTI
Briefly: Binding affinity to the estradiol receptor (displacement of [3H]-estradiol from uterus cytosol). Also noted: species or system rabbit (New Zealand rabbits). Particulars: uterus cytosol of prepuberal rabbits, 18 hours at 4° C., 2.5×10^-9 M [3H]-estradiol; read-out: ED50% (concentration of the substance which replaces 50% [3H]-estradiol from the estradiol receptor). As for the experimental part:
The determination of the binding affinity to the estradiol receptor was made using rabbit uterus cytosol.
The binding affinity to the estradiol receptor was measured according to the method of N. Devleeschouwer, G. Leclercq, A. Danguy and J.C. Heuson [Europ.
H]-estradiol from the estradiol receptor.
Background: Displacement assays read how much labelled ligand stays bound in the presence of the test substance.

Assay [2] concerns 7,12-dimethylbenz(a)anthracene-induced mammary tumor. Briefly: Inhibitory effect on the 7,12-dimethylbenz(a)anthracene-induced mammary tumor. The assay is classed as in vivo, female Sprague-Dawley rat (Hanover breed). Conditions: compared with tamoxifen under the same test conditions.
Protocol: Twice weekly and on the 28th day of testing the number of animals was determined and the tumor surface (mm^2 /animal) of the therapy animals and control animals was measured. At the end of testing, the percentage increase of the average tumor surface of the treated animals was determined in comparison to the control animals, the surface of the latter being taken as 100%.
In assay [3] the test system is hormone-dependent mammary. Conditions: background art; cited from earlier work.

Entries after “also recorded” stand apart in the source; their conditions may differ.

On to `CC/C(=C(\c1ccc(O)cc1)c1ccc(OCCN(C)C)cc1)c1ccccc1` [4-hydroxytamoxifen], for which the “anti-estrogenic activity (in words)” value in assay [1] is listed as “antiestrogenic effect comparable to tamoxifen”. In the case of `CC/C(=C(/c1ccc(OCCN(C)C)cc1)c1cccc(O)c1)c1ccccc1` [Compound 1, (E)-1-[4'-(2-Dimethylaminoethoxy)phenyl]-1-(3-hydroxyphenyl)-2-phenylbut-1-ene], at estradiol receptor, the IC50 was found to be 24 nM. Also, the “inhibitory activity on the mammary tumor (in words)” value in assay [2] is given as “above the activity of tamoxifen; also recorded: clearly superior to tamoxifen in the inhibitory activity on the tumor”.

As for `CC/C(=C(/c1ccc(OCCN(CC)CC)cc1)c1cccc(O)c1)c1ccccc1` [Compound 2, (E)-1-[4'-(2-Diethylaminoethoy)phenyl]-1-(3'-hydroxyphenyl)-2-phenylbut-1-ene], the IC50 on estradiol receptor turned out to be 65 nM. As to `CC/C(=C(/c1ccc(OCCNC)cc1)c1cccc(O)c1)c1ccccc1` [Compound 3, (E)-1-(3'-Hydroxyphenyl)-1-[4'-(2-methylaminoethoxy)phenyl]-2-phenylbut-1-ene], at estradiol receptor, the IC50 was determined as 37 nM. With `CC/C(=C(\c1ccccc1)c1ccc(OCCN(C)C)cc1)c1ccccc1` [Tamoxifen, (Z)-1-[4'-(2-dimethylaminoethoxy)phenyl]-1,2-diphenylbut-1-ene], the “anti-estrogenic activity (in words)” value in assay [1] is listed as “marked anti-estrogenic activity”. The “therapy of hormone-dependent mammary tumors (in words)” value in assay [3] was “already proved successful in the therapy of hormone-dependent mammary”.
